Source: US9050353B2, “Use of icariin and epimedium flavonoids containing icariin to treat diseases associated with myelin sheath lesion” (Xuanwu Hospital of Capital Medical University, priority 2010, dated 2015)

Columns and labels:
Format in all cases: in vivo
[1] = tested on: myeloid tissue myelinoclasis in EAE mice model; assay: Myelinoclasis of myeloid tissue, LFB staining, EAE mice; settings: positive control drug, dose not given, scale 0-4
Method: (§1) Preparation of mice model and administration: experimental autoimmune encephalomyelitis (EAE) mice model is an important tool for studying various human demyelinating diseases of nervous system. In the present experiment, the preparation of EAE mice model was performed by immunizing female C57BL/6J mice with myelin sheath oligodendroglial cell surface glycoprotein MOG35-55. That is, the mice were subcutaneously injected at dorsal part of spinal column with 0.2 mL of MOG35-55 antigen elixir, and 0.2 ml of bordetella pertussis solution was intraperitoneally injected at the time of immunization injection and 48 h thereafter, respectively. Icariin was intragastrically administered after the last injection of bordetella pertussis solution, for consecutive 3 weeks.
Experimental objective: the myelinoclasis of myeloid tissue of EAE model mice were assayed by Luxol Fast Blue (LFB) staining, and the intervention effects of icariin on this pathological change were studied.
(§2) Experimental method: the mice were anesthetized with 10% chloral hydrate on the 29th day of experiment, fixed by perfusion of 4% paraformaldehyde, myeloid tissues were taken for making paraffin sections, section thickness 5 nm. Stained with LFB, observed under microscope, and scored according to the following standard: 0 score, absence of myelinoclasis; 1 score, one small range of myelinoclasis; 2 score, 2 or 3 small ranges of myelinoclasis; 3 score, 1 to 2 large ranges of myelinoclasis; 4 score, large ranges of myelinoclasis accumulatively existing in 20% or more of white matter regions.

[2] = tested on: IL-1; assay: Serum IL-1 content by ELISA, EAE mice; settings: positive control drug, dose not given
Method: as §1
Experimental objective: interleukin-1 (IL-1) and IL-6 are important inflammatory cytokines, and have promoting effects on inflammatory reactions. This experiment used enzyme linked immunosorbent assay (ELISA) to measure contents of IL-1 and IL-6 in serums of EAE mice model, and the effects of icariin on these contents were observed.
Experimental method: mice were anesthetized with pentobarbital sodium, blood sample was taken from abdominal aorta, stood at room temperature for 2 h, centrifuged at 3000 rpm for 20 min, and supernatant was taken, stored at −80° C. for use. The operation was performed strictly according to the steps of specification of ELISA kit. Optical density was measured with ELIASA at 450 nm. The corresponding contents of IL-1 and IL-6 were calculated with the measured OD values on standard curves.

[3] = tested on: Malondialdehyde (MDA); assay: MDA content of cerebral cortex, biochemical kit, EAE rats; settings: positive control drug, dose not given
Method: (§3) Preparation of rat model and administration: experimental autoimmune encephalomyelitis (EAE) model is an important tool for studying various human demyelinating diseases of nervous system. In the example, the preparation of EAE rat model was performed by multipoint immunizing female Lewis rats subcutaneously at tail root with a homogenate of spinal cord and cerebral gray matter of Guinea pig as well as complete Freund's adjuvant after emulsification. They were intragastrically administered with Epimedium flavanoids for 3 weeks.
Experimental objective: the lipid peroxidation between oxygen free radicals and unsaturated fatty acids of cell membranes and organelle membranes results in the damage, degradation, denaturation and dysfunction of membrane phospholipids. Malondialdehyde (MDA) is a metabolic product of lipid peroxidation, and the increase of MDA indicates the enhancement of lipid peroxidation, which may lead to damage of nerve cells and myelin sheath. Superoxide dismutase (SOD) can scavenge superoxide anions and is an important antioxidase in vivo. In this experiment, SOD activity and MDA content of brain tissues in EAE rat model were measured by biochemistry method, and the effects of Epimedium flavanoids on changes thereof were observed. […]

[4] = tested on: TNF-α; assay: TNF-α content of cerebral cortex by ELISA, EAE rats; settings: positive control drug, dose not given
Method: as §3
Experimental objective: tumor necrosis factor α (TNF-α) is an important inflammatory cytokines, and has promoting effects on inflammatory reactions. This experiment used enzyme linked immunosorbent assay (ELISA) to measure TNF-α content of cerebral cortex in EAE rat model, and observe the effects of Epimedium flavanoids on the content.
Experimental method: rats were anesthetized and sacrificed, fresh brain tissues were was taken, processed to form cerebral cortex homogenate. The operation was performed strictly according to the steps of specification of ELISA kit. Optical density was measured with ELISA at 450 nm. The corresponding TNF-α content was calculated with the measured OD values on standard curve.

[5] = tested on: nitric-oxide synthase (NOS); assay: NOS activity of cerebral cortex, biochemical kit, EAE rats; settings: positive control drug, dose not given
Method: as §3
(§4) Experimental objective: nitric-oxide synthase (NOS) catalyzes the generation of nitric oxide (NO). During inflammatory reaction, the activity of induced NOS increases, excess NO are generated and oxygen radicals are generated via oxidation, which may result in damages in nerve cells and myelin sheath. In this experiment, NOS activity and NO content were measured using biochemical kits in cerebral cortex of EAE rat model, and the effects of Epimedium flavanoids on changes thereof were observed. […]

[6] = tested on: nitric oxide (NO); assay: NO content of cerebral cortex, biochemical kit, EAE rats; settings: positive control drug, dose not given
Method: as §3, §4

[7] = tested on: myelinoclasis of spinal cord lumbar intumescentia in EAE rat model; assay: Myelinoclasis of spinal cord lumbar intumescentia, LFB staining, EAE rats; settings: positive control drug, dose not given, scale 0-4
Method: as §3, with “weeks. […]” for “weeks.”
as §2, with “rats” for “mice”, “14th” for “29th”, “spinal cord” for “myeloid”, “4 μm. (1)” for “5 nm.”, “regions. […]” for “regions.”

CC(=O)OCC(=O)[C@@]1(O)CC[C@H]2[C@@H]3CCC4=CC(=O)C=C[C@]4(C)[C@H]3C(=O)C[C@@]21C [prednisone acetate]
Myelinoclasis (LFB staining score) [1]: 0.77 ± 0.22 | IL-1 content [2]: 0.115 ± 0.001 pg/mL | MDA content [3]: 1.03 ± 0.09 nmol/mg protein | TNF-α content [4]: 64.29 ± 7.52 pg/mg pro | NOS activity [5]: 2.44 ± 0.08 U/mg protein | NO content [6]: 0.77 ± 0.01 mmol/mg protein | Myelinoclasis (LFB staining score) [7]: 0.89 ± 0.20
